Measurements reported in patent US6737383B1, “Herbicidal oxadiazolidines” (priority 1999, dated 2004).

How the values were obtained:
giant foxtail = assay: Test B pre/postemergence giant foxtail; assay type: in vivo, Setaria faberii
How it was run: (§1)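 Test chemicals in a non-phytotoxic solvent mixture with surfactant were sprayed preemergence onto planted seeds and postemergence onto plants 2 to 18 cm tall (1- to 4-leaf stage). After twelve to sixteen days in a greenhouse, injury was visually rated against untreated controls from 0 (no effect) to 10 (complete control).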

surinam grass = assay: Test B pre/postemergence surinam grass; assay type: in vivo, Brachiaria decumbens
How it was run: as §1

bedstraw = assay: Test B pre/postemergence bedstraw; assay type: in vivo, Galium aparine
How it was run: as §1

cocklebur = assay: Test B pre/postemergence cocklebur; assay type: in vivo, Xanthium strumarium
How it was run: as §1

blackgrass = assay: Test B pre/postemergence blackgrass; assay type: in vivo, Alopecurus myosuroides
How it was run: as §1

smallflower flatsedge = assay: Test B flood test smallflower flatsedge; assay type: in vivo, Cyperus difformis; details: Pre-emergence
How it was run: (§2)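 Each value is a visual injury score relative to controls, with 10 meaning complete control and 0 no effect. Evaluation took place twelve to sixteen days after the 2-leaf-stage plants were treated and kept in the greenhouse.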

purple nutsedge = assay: Test B pre/postemergence purple nutsedge; assay type: in vivo, Cyperus rotundus
How it was run: as §1

sugar beet = assay: Test B pre/postemergence sugar beet; assay type: in vivo, Beta vulgaris
How it was run: as §1

wheat = assay: Test B pre/postemergence wheat; assay type: in vivo, Triticum aestivum
How it was run: as §1

wild oat = assay: Test B pre/postemergence wild oat; assay type: in vivo, Avena fatua
How it was run: as §1

duck salad = assay: Test B flood test duck salad; assay type: in vivo, Heteranthera limosa; details: Pre-emergence
How it was run: as §2

bamyardgrass = assay: Test B flood test barnyardgrass; assay type: in vivo, Echinochloa crus-galli; details: Pre-emergence
How it was run: as §2

pigweed = assay: Test B pre/postemergence pigweed; assay type: in vivo, Amaranthus retroflexus
How it was run: as §1

morningglory = assay: Test B pre/postemergence morningglory; assay type: in vivo, Ipomoea hederacea
How it was run: as §1

soybean = assay: Test B pre/postemergence soybean; assay type: in vivo, Glycine max
How it was run: as §1

rape = assay: Test B pre/postemergence rape; assay type: in vivo, Brassica napus
How it was run: as §1

[1] = Preemergence, Rate 62 g/ha, scale of 0 to 10 where 0 is no effect and 10 is complete control
[2] = Preemergence, Rate 250 g/ha, scale of 0 to 10 where 0 is no effect and 10 is complete control
[3] = Preemergence, Rate 500 g/ha, scale of 0 to 10 where 0 is no effect and 10 is complete control
[4] = Rate 62 g/ha, Postemergence, scale 0 to 10 (0 no effect, 10 complete control)
[5] = Rate 125 g/ha, Postemergence, scale of 0 to 10 where 0 is no effect and 10 is complete control
[6] = Rate 250 g/ha, Postemergence, scale of 0 to 10 where 0 is no effect and 10 is complete control
[7] = Rate 500 g/ha, Postemergence, scale 0 to 10, 0 no effect, 10 complete control
[8] = Rate 1000 g/ha, scale 0 to 10 (0 no effect, 10 complete control)
[9] = Rate 125 g/ha, flood test species, scale 0 to 10 where 0 is no effect and 10 is complete control
[10] = Rate 250 g/ha, flood-test species, scale 0 to 10, 0 is no effect, 10 is complete control
[11] = Rate 500 g/ha, flood test species, scale 0 to 10 (0 no effect, 10 complete control)

## CCN(C(=O)n1oc(=O)n(C2CCCCC2)c1=O)C1CCCCC1 [Compound 308]
Giant foxtail; [1]
  Giant foxtail plant response rating: 0
Giant foxtail; Preemergence, Rate 125 g/ha
  Giant foxtail plant response rating (0 to 10 scale): 0
Giant foxtail; [2]
  Giant foxtail plant response rating: 0
Giant foxtail; [3]
  Giant foxtail plant response rating: 0
Giant foxtail; [4]
  Giant foxtail plant response rating: 0
Giant foxtail; [5]
  Giant foxtail plant response rating: 0
Giant foxtail; [6]
  Plant response rating, Giant foxtail: 0
Surinam grass; [1]
  B. signalgrass plant response rating: 0
Surinam grass; Preemergence, Rate 125 g/ha
  B. signalgrass plant response rating (0 to 10 scale, 0 is no effect, 10 is complete control): 0
Surinam grass; [2]
  B. signalgrass plant response rating: 0
Surinam grass; [3]
  B. signalgrass plant response rating: 0
Surinam grass; [4]
  B. signalgrass plant response rating: 0
Surinam grass; [5]
  B. signalgrass plant response rating: 0
Surinam grass; [6]
  Plant response rating, B. signalgrass: 0
Surinam grass; [7]
  B. signalgrass plant response rating: 0
bedstraw; [1]
  Bedstraw plant response rating: 0
bedstraw; Preemergence, Rate 125 g/ha
  Bedstraw plant response rating (0 to 10 scale): 0
bedstraw; [2]
  Bedstraw plant response rating: 0
bedstraw; [3]
  Bedstraw plant response rating: 0
bedstraw; [4]
  Bedstraw plant response rating: 0
bedstraw; [5]
  Bedstraw plant response rating: 0
bedstraw; [6]
  Plant response rating, Bedstraw: 0
bedstraw; [7]
  Bedstraw plant response rating: 0
cocklebur; [1]
  Cocklebur plant response rating: 0
cocklebur; Preemergence, Rate 125 g/ha
  Cocklebur plant response rating (0 to 10 scale): 0
cocklebur; [2]
  Cocklebur plant response rating: 0
cocklebur; [3]
  Cocklebur plant response rating: 0
cocklebur; [4]
  Cocklebur plant response rating: 0
cocklebur; [5]
  Cocklebur plant response rating: 0
cocklebur; [6]
  Plant response rating, Cocklebur: 0
cocklebur; [7]
  Cocklebur plant response rating: 0
blackgrass; [1]
  Blackgrass plant response rating: 0
blackgrass; Preemergence, Rate 125 g/ha
  Blackgrass plant response rating (0 to 10 scale): 0
blackgrass; [2]
  Blackgrass plant response rating: 0
blackgrass; [3]
  Blackgrass plant response rating: 0
blackgrass; [4]
  Blackgrass plant response rating: 0
blackgrass; [5]
  Blackgrass plant response rating: 0
blackgrass; [6]
  Plant response rating, Blackgrass: 0
blackgrass; [7]
  Blackgrass plant response rating: 0
Smallflower flatsedge; [8]
  S. Flatsedge plant response rating: 0
Smallflower flatsedge; [9]
  S. Flatsedge plant response rating: 0
Smallflower flatsedge; [10]
  S. Flatsedge plant response rating: 0
Smallflower flatsedge; [11]
  S. Flatsedge plant response rating: 0
Purple nutsedge; [1]
  Nutsedge plant response rating: 0
Purple nutsedge; Preemergence, Rate 125 g/ha
  Nutsedge plant response rating (0 to 10 scale): 0
Purple nutsedge; [2]
  Nutsedge plant response rating: 0
Purple nutsedge; [3]
  Nutsedge plant response rating: 0
Purple nutsedge; [4]
  Nutsedge plant response rating: 0
Purple nutsedge; [5]
  Nutsedge plant response rating: 0
Purple nutsedge; [6]
  Plant response rating, Nutsedge: 0
Sugar beet; [1]
  Sugarbeets plant response rating: 0
Sugar beet; Preemergence, Rate 125 g/ha
  Sugarbeets plant response rating (0 to 10 scale): 0
Sugar beet; [2]
  Sugarbeets plant response rating: 0
Sugar beet; [3]
  Sugarbeets plant response rating: 0
Sugar beet; [4]
  Sugarbeets plant response rating: 0
Sugar beet; [5]
  Sugarbeets plant response rating: 0
Sugar beet; [6]
  Plant response rating, Sugarbeets: 0
wheat; [1]
  Wheat plant response rating: 0
wheat; Preemergence, Rate 125 g/ha
  Wheat plant response rating (0 to 10 scale): 0
wheat; [2]
  Wheat plant response rating: 0
wheat; [3]
  Wheat plant response rating: 0
wheat; [4]
  Wheat plant response rating: 0
wheat; [5]
  Wheat plant response rating: 0
wheat; [6]
  Plant response rating, Wheat: 0
Wild oat; [1]
  Wild oats plant response rating: 0
Wild oat; Preemergence, Rate 125 g/ha
  Wild oats plant response rating (0 to 10 scale): 0
Wild oat; [2]
  Wild oats plant response rating: 0
Wild oat; [3]
  Wild oats plant response rating: 0
Wild oat; [4]
  Wild oats plant response rating: 0
Wild oat; [5]
  Wild oats plant response rating: 0
Wild oat; [6]
  Plant response rating, Wild oats: 0
Duck salad; [8]
  Ducksalad plant response rating: 0
Duck salad; [9]
  Ducksalad plant response rating: 0
Duck salad; [10]
  Ducksalad plant response rating: 0
Duck salad; [11]
  Ducksalad plant response rating: 0
bamyardgrass; [8]
  Barnyardgrass plant response rating: 0
bamyardgrass; [9]
  Barnyardgrass plant response rating: 0
bamyardgrass; [10]
  Barnyardgrass plant response rating: 0
bamyardgrass; [11]
  Barnyardgrass plant response rating: 0
pigweed; [1]
  Redroot pigweed plant response rating: 0
pigweed; Preemergence, Rate 125 g/ha
  Redroot pigweed plant response rating (0 to 10 scale): 0
pigweed; [2]
  Redroot pigweed plant response rating: 0
pigweed; [3]
  Redroot pigweed plant response rating: 0
pigweed; [4]
  Redroot pigweed plant response rating: 0
pigweed; [5]
  Redroot pigweed plant response rating: 0
pigweed; [6]
  Plant response rating, Redroot pigweed: 0
morningglory; [1]
  Morningglory plant response rating: 0
morningglory; Preemergence, Rate 125 g/ha
  Morningglory plant response rating (0 to 10 scale): 0
morningglory; [2]
  Morningglory plant response rating: 0
morningglory; [3]
  Morningglory plant response rating: 0
morningglory; [4]
  Morningglory plant response rating: 0
morningglory; [5]
  Morningglory plant response rating: 0
morningglory; [6]
  Plant response rating, Morningglory: 2
soybean; [1]
  Soybean plant response rating: 0
soybean; Preemergence, Rate 125 g/ha
  Soybean plant response rating (0 to 10 scale): 0
soybean; [2]
  Soybean plant response rating: 0
soybean; [3]
  Soybean plant response rating: 0
soybean; [4]
  Soybean plant response rating: 1
soybean; [5]
  Soybean plant response rating: 1
soybean; [6]
  Plant response rating, Soybean: 1
rape; [1]
  Rape plant response rating: 0
rape; Preemergence, Rate 125 g/ha
  Rape plant response rating (0 to 10 scale): 0
rape; [2]
  Rape plant response rating: 0
rape; [3]
  Rape plant response rating: 0
rape; [4]
  Rape plant response rating: 0
rape; [5]
  Rape plant response rating: 0
rape; [6]
  Plant response rating, Rape: 0
